Measured values taken from the NIST ThermoML archive (doi:10.1021/je7002447).

Legend:
[1] = excess molar enthalpy (molar enthalpy of mixing); xn = mol fraction of the nth substance listed; details: 298.15 K, 101.3 kPa, Liquid, Flow calorimetry
[2] = 298.15 K; 101.33 kPa; Liquid

ClCCc1ccccc1 [(2-chloroethyl)benzene] + CCCCc1ccccc1
[1]
Details	excess molar enthalpy [kcal/mol]
x1 = 0.1063	0.0238
x1 = 0.1295	0.028
x1 = 0.1655	0.0343
x1 = 0.2293	0.0443
x1 = 0.3085	0.052
x1 = 0.373	0.0564
x1 = 0.4424	0.0604
x1 = 0.4716	0.0607
x1 = 0.5434	0.061
x1 = 0.6134	0.0592
x1 = 0.7041	0.054
x1 = 0.7604	0.0477
x1 = 0.8264	0.0382
x1 = 0.8639	0.0315
x1 = 0.9225	0.0195

ClCc1ccccc1 [(chloromethyl)benzene] + CCCCc1ccccc1
[1]
Details	excess molar enthalpy [kcal/mol]
x1 = 0.1194	0.033
x1 = 0.145	0.0402
x1 = 0.2028	0.0481
x1 = 0.2532	0.0596
x1 = 0.3114	0.0663
x1 = 0.4041	0.073
x1 = 0.5043	0.0762
x1 = 0.5756	0.0752
x1 = 0.6439	0.0712
x1 = 0.7307	0.0619
x1 = 0.7834	0.0522
x1 = 0.8444	0.0413
x1 = 0.8906	0.0294
x1 = 0.9313	0.0204

Clc1ccccc1 [chlorobenzene] + c1ccccc1
[1]
Details	excess molar enthalpy [kcal/mol]
x1 = 0.0804	-0.000502
x1 = 0.1272	-0.000669
x1 = 0.1794	-0.000932
x1 = 0.2258	-0.0011
x1 = 0.3043	-0.00122
x1 = 0.3684	-0.00131
x1 = 0.3962	-0.00139
x1 = 0.4666	-0.00136
x1 = 0.5384	-0.00129
x1 = 0.5675	-0.00131
x1 = 0.6363	-0.00117
x1 = 0.6999	-0.001
x1 = 0.7777	-0.00086
x1 = 0.8235	-0.000741
x1 = 0.8974	-0.000406

Cc1ccccc1 [toluene]
Details	mass density [kg/m3]
[2]	862.19

ClCCc1ccccc1 [(2-chloroethyl)benzene] + Cc1ccccc1
[1]
Details	excess molar enthalpy [kcal/mol]
x1 = 0.075	-7.17e-05
x1 = 0.092	0
x1 = 0.1686	0.000191
x1 = 0.2332	0.000502
x1 = 0.2885	0.000645
x1 = 0.3782	0.0011
x1 = 0.4478	0.00131
x1 = 0.5195	0.00167
x1 = 0.5488	0.00177
x1 = 0.6186	0.00189
x1 = 0.6838	0.00184
x1 = 0.7643	0.00174
x1 = 0.8122	0.00163
x1 = 0.8439	0.00146
x1 = 0.8902	0.00115
x1 = 0.9068	0.00098

ClCc1ccccc1 [(chloromethyl)benzene] + CCCc1ccccc1
[1]
Details	excess molar enthalpy [kcal/mol]
x1 = 0.1315	0.0266
x1 = 0.2325	0.038
x1 = 0.3124	0.0468
x1 = 0.3772	0.0499
x1 = 0.4468	0.0527
x1 = 0.5478	0.0541
x1 = 0.645	0.0484
x1 = 0.7079	0.0443
x1 = 0.7842	0.0344
x1 = 0.8289	0.0245
x1 = 0.8791	0.0204
x1 = 0.9065	0.0154

ClCCCc1ccccc1 [(3-chloropropyl)benzene] + CCCCc1ccccc1
[1]
Details	excess molar enthalpy [kcal/mol]
x1 = 0.1167	0.00734
x1 = 0.209	0.0142
x1 = 0.2605	0.0167
x1 = 0.3458	0.0197
x1 = 0.4134	0.0216
x1 = 0.5138	0.0227
x1 = 0.5849	0.0223
x1 = 0.6132	0.0214
x1 = 0.6789	0.0193
x1 = 0.7381	0.0172
x1 = 0.8087	0.0137
x1 = 0.9136	0.0075

Clc1ccccc1 [chlorobenzene] + CCc1ccccc1
[1]
Details	excess molar enthalpy [kcal/mol]
x1 = 0.1075	-0.0131
x1 = 0.1308	-0.0157
x1 = 0.1671	-0.0186
x1 = 0.2864	-0.0276
x1 = 0.3111	-0.029
x1 = 0.4453	-0.0335
x1 = 0.4745	-0.0346
x1 = 0.5463	-0.0341
x1 = 0.6436	-0.0301
x1 = 0.7625	-0.0261
x1 = 0.8784	-0.015
x1 = 0.9233	-0.00956

c1ccccc1 [benzene]
Details	mass density [kg/m3]
[2]	873.58

CCCCc1ccccc1 [butylbenzene]
Details	mass density [kg/m3]
[2]	856.29

CCCc1ccccc1 [propylbenzene]
Details	mass density [kg/m3]
[2]	857.62

ClCc1ccccc1 [(chloromethyl)benzene] + Cc1ccccc1
[1]
Details	excess molar enthalpy [kcal/mol]
x1 = 0.1036	0.00576
x1 = 0.1877	0.00925
x1 = 0.2574	0.0113
x1 = 0.3161	0.0128
x1 = 0.3813	0.014
x1 = 0.4803	0.0143
x1 = 0.581	0.0133
x1 = 0.649	0.0124
x1 = 0.735	0.0109
x1 = 0.7871	0.00944
x1 = 0.8809	0.00571
x1 = 0.9024	0.00511

ClCCc1ccccc1 [(2-chloroethyl)benzene]
Details	mass density [kg/m3]
[2]	1066.91

ClCCCc1ccccc1 [(3-chloropropyl)benzene] + CCc1ccccc1
[1]
Details	excess molar enthalpy [kcal/mol]
x1 = 0.0766	-0.00471
x1 = 0.1214	-0.00691
x1 = 0.1717	-0.00891
x1 = 0.2372	-0.0103
x1 = 0.2931	-0.0111
x1 = 0.3835	-0.012
x1 = 0.4534	-0.012
x1 = 0.5251	-0.0117
x1 = 0.5544	-0.0114
x1 = 0.6239	-0.0103
x1 = 0.7133	-0.00832
x1 = 0.7684	-0.00719
x1 = 0.8327	-0.00519
x1 = 0.8924	-0.00335

CCCc1ccccc1 [propylbenzene] + Clc1ccccc1
[1]
Details	excess molar enthalpy [kcal/mol]
x2 = 0.1205	-0.0121
x2 = 0.1859	-0.0162
x2 = 0.2551	-0.0211
x2 = 0.3394	-0.0244
x2 = 0.4066	-0.0261
x2 = 0.4774	-0.0277
x2 = 0.5781	-0.0261
x2 = 0.6727	-0.0241
x2 = 0.7851	-0.0189
x2 = 0.8796	-0.0118
x2 = 0.9164	-0.00782

ClCCCc1ccccc1 [(3-chloropropyl)benzene] + CCCc1ccccc1
[1]
Details	excess molar enthalpy [kcal/mol]
x1 = 0.0863	0.000884
x1 = 0.136	0.00158
x1 = 0.191	0.0022
x1 = 0.2394	0.00277
x1 = 0.3207	0.00327
x1 = 0.3863	0.00392
x1 = 0.4145	0.00411
x1 = 0.4856	0.00445
x1 = 0.5573	0.00466
x1 = 0.5861	0.00464
x1 = 0.6538	0.00464
x1 = 0.7157	0.00423
x1 = 0.7391	0.00428
x1 = 0.7906	0.00378
x1 = 0.8343	0.00311
x1 = 0.9042	0.00215
x1 = 0.9189	0.00191

ClCCCc1ccccc1 [(3-chloropropyl)benzene] + c1ccccc1
[1]
Details	excess molar enthalpy [kcal/mol]
x1 = 0.0913	-0.00229
x1 = 0.1843	-0.00478
x1 = 0.2316	-0.00547
x1 = 0.3113	-0.00717
x1 = 0.376	-0.00822
x1 = 0.4455	-0.00868
x1 = 0.5466	-0.00868
x1 = 0.6164	-0.0082
x1 = 0.7068	-0.00705
x1 = 0.7834	-0.00569
x1 = 0.8282	-0.00476
x1 = 0.8577	-0.00416

ClCc1ccccc1 [(chloromethyl)benzene] + Clc1ccccc1
[1]
Details	excess molar enthalpy [kcal/mol]
x2 = 0.1118	0.0144
x2 = 0.2012	0.0215
x2 = 0.2742	0.0245
x2 = 0.335	0.0271
x2 = 0.4304	0.0287
x2 = 0.5312	0.0272
x2 = 0.6018	0.0253
x2 = 0.6939	0.022
x2 = 0.7514	0.0187
x2 = 0.8193	0.015
x2 = 0.858	0.0123

CCc1ccccc1 [ethylbenzene]
Details	mass density [kg/m3]
[2]	862.55

ClCc1ccccc1 [(chloromethyl)benzene]
Details	mass density [kg/m3]
[2]	1094.82

ClCCCc1ccccc1 [(3-chloropropyl)benzene] + Cc1ccccc1
[1]
Details	excess molar enthalpy [kcal/mol]
x1 = 0.1072	-0.0125
x1 = 0.1526	-0.0165
x1 = 0.1936	-0.0195
x1 = 0.2648	-0.0232
x1 = 0.3244	-0.0253
x1 = 0.3507	-0.0253
x1 = 0.4187	-0.0272
x1 = 0.4899	-0.0259
x1 = 0.5193	-0.0255
x1 = 0.5903	-0.0243
x1 = 0.6576	-0.0218
x1 = 0.6836	-0.0205
x1 = 0.7423	-0.018
x1 = 0.8121	-0.0136
x1 = 0.8781	-0.00882

ClCCc1ccccc1 [(2-chloroethyl)benzene] + CCCc1ccccc1
[1]
Details	excess molar enthalpy [kcal/mol]
x1 = 0.1173	0.0173
x1 = 0.1375	0.0187
x1 = 0.1662	0.0221
x1 = 0.2099	0.0266
x1 = 0.285	0.033
x1 = 0.347	0.0364
x1 = 0.4147	0.0393
x1 = 0.4436	0.0405
x1 = 0.5152	0.0411
x1 = 0.5863	0.0404
x1 = 0.6145	0.0388
x1 = 0.6801	0.0369
x1 = 0.7392	0.0319
x1 = 0.8096	0.0264
x1 = 0.85	0.0222
x1 = 0.914	0.0138

ClCCCc1ccccc1 [(3-chloropropyl)benzene]
Details	mass density [kg/m3]
[2]	1041.84

Clc1ccccc1 [chlorobenzene] + Cc1ccccc1
[1]
Details	excess molar enthalpy [kcal/mol]
x1 = 0.1156	-0.0126
x1 = 0.2072	-0.0198
x1 = 0.2584	-0.0226
x1 = 0.3433	-0.0261
x1 = 0.4107	-0.0272
x1 = 0.5111	-0.0274
x1 = 0.6106	-0.0256
x1 = 0.6765	-0.023
x1 = 0.807	-0.0161
x1 = 0.9127	-0.00798

Clc1ccccc1 [chlorobenzene]
Details	mass density [kg/m3]
[2]	1101.17

ClCCc1ccccc1 [(2-chloroethyl)benzene] + c1ccccc1
[1]
Details	excess molar enthalpy [kcal/mol]
x1 = 0.1016	0.00739
x1 = 0.145	0.00896
x1 = 0.2028	0.0105
x1 = 0.3115	0.0114
x1 = 0.4042	0.0112
x1 = 0.5044	0.00999
x1 = 0.5757	0.00856
x1 = 0.6706	0.00686
x1 = 0.7308	0.00581
x1 = 0.8028	0.00471
x1 = 0.8444	0.00354

ClCCc1ccccc1 [(2-chloroethyl)benzene] + CCc1ccccc1
[1]
Details	excess molar enthalpy [kcal/mol]
x1 = 0.105	0.00798
x1 = 0.19	0.012
x1 = 0.2603	0.0148
x1 = 0.3194	0.0181
x1 = 0.3849	0.0191
x1 = 0.4841	0.0202
x1 = 0.5847	0.0193
x1 = 0.6524	0.0184
x1 = 0.7379	0.0159
x1 = 0.7897	0.0144
x1 = 0.8825	0.00832
x1 = 0.9037	0.00641

CCCCc1ccccc1 [butylbenzene] + Clc1ccccc1
[1]
Details	excess molar enthalpy [kcal/mol]
x2 = 0.133	-0.00973
x2 = 0.1609	-0.0115
x2 = 0.2036	-0.0139
x2 = 0.2772	-0.0177
x2 = 0.3383	-0.0199
x2 = 0.4341	-0.0219
x2 = 0.535	-0.0209
x2 = 0.6054	-0.0194
x2 = 0.6971	-0.0164
x2 = 0.8036	-0.0133
x2 = 0.902	-0.00822

ClCc1ccccc1 [(chloromethyl)benzene] + CCc1ccccc1
[1]
Details	excess molar enthalpy [kcal/mol]
x1 = 0.0962	0.0125
x1 = 0.1664	0.0181
x1 = 0.2102	0.0209
x1 = 0.2853	0.0242
x1 = 0.4151	0.0281
x1 = 0.5156	0.0284
x1 = 0.5866	0.0278
x1 = 0.6804	0.025
x1 = 0.7395	0.022
x1 = 0.8098	0.018
x1 = 0.8646	0.0136
x1 = 0.8949	0.00999
